Experimental data taken from paper PMC3581075 (Journal of pharmaceutical sciences, 2011).
Counter-ions that a name gives are not always drawn. Like-named read-outs stand apart in the source and are kept apart here.

Experiments:
[1] = tested on: rat hepatocytes; settings: 2 min, rifampin 10 μM, MK-571 100 μM
[2] = target: T1, OATP1B3 (Homo sapiens, UniProt Q9NPD5); settings: on average; p<0.05
T1 sequence (Q9NPD5 1-702): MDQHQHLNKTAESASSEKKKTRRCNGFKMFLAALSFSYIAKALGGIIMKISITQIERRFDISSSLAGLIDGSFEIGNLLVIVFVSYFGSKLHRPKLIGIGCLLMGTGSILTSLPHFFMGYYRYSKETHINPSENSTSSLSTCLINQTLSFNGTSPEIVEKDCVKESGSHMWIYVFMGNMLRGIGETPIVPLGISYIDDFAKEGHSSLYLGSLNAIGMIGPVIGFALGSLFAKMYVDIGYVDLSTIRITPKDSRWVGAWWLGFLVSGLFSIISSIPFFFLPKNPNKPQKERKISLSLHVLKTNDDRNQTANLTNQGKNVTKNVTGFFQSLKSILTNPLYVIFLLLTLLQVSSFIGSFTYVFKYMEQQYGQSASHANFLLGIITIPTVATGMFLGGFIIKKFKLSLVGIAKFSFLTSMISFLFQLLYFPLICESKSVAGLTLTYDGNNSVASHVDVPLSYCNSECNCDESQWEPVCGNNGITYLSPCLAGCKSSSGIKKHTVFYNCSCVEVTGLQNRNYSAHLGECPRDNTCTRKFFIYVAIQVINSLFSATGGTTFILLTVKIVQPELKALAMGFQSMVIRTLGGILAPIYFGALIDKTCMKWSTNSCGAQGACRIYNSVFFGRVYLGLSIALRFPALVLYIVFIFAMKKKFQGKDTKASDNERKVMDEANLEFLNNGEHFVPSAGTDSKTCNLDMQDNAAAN

[3] = target: T2, OATP2B1 (Homo sapiens, UniProt O94956); settings: on average; p<0.05
T2 sequence (O94956 1-709): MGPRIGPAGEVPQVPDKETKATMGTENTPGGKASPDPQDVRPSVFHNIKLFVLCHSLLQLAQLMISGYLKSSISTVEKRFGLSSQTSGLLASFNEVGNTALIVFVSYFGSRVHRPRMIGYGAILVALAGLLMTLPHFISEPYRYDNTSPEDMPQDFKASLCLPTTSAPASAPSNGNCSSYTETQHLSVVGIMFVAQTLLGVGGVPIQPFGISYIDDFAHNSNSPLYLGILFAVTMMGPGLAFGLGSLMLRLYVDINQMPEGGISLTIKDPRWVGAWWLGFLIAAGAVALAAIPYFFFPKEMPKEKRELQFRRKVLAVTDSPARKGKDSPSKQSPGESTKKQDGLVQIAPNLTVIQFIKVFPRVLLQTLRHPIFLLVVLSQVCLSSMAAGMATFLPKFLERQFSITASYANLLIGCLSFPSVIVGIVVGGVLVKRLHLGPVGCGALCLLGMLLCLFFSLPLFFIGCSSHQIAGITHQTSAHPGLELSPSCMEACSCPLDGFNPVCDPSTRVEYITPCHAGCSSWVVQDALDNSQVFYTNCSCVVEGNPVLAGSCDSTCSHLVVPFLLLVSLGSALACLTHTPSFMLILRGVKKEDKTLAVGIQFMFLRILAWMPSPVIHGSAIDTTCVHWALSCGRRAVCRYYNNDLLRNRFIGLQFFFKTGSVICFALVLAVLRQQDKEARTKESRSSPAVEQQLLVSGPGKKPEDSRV

[4] = tested on: rat hepatocytes
[5] = classification by solubility, permeability and extent of metabolism; cited from earlier work
[6] = tested on: rat hepatocytes; remark: listed apart in the source
[7] = tested on: pooled rat microsomes; assay: Microsome incubations, pooled rat microsomes; settings: propranolol 10 μM, 0.5 mg/ml microsomes, 30 min, 37°C; rifampin 10 μM, quinidine 30 μM
[8] = tested on: pooled human microsomes; assay: Microsome incubations, pooled human microsomes; settings: propranolol 10 μM; quinidine 30 μM
[9] = tested on: pooled rat microsomes
[10] = tested on: rat hepatocytes; remark: listed apart in the source
[11] = tested on: human hepatocytes
[12] = tested on: pooled human microsomes

CN(C)C(=O)CCSC(SCCC(=O)O)c1cccc(/C=C/c2ccc3ccc(Cl)cc3n2)c1 (stereo not shown) [MK-571]
Change of uptake of propranolol in rat hepatocytes ([1]; propranolol 10 μM, n=4): not significantly changed

CC12CCC3c4ccc(OS(=O)(=O)O)cc4CCC3C1CCC2=O (stereo not shown) [[^3H]-estrone sulfate]
Decrease of uptake in pcMV6 empty vector control vs OATP1B3 transfected cells [2]: 50% | Decrease of uptake in pcMV6 empty vector control vs OATP2B1 transfected cells [3]: 80%

CC[C@H](C)[C@H](NC(=O)[C@H](CC(=O)O)NC(=O)[C@H](CC(C)C)NC(=O)[C@H](Cc1cnc[nH]1)NC(=O)[C@@H]1CSSC[C@H](N)C(=O)N[C@@H](CO)C(=O)N[C@H]2CSSC[C@H](NC(=O)[C@H](CCC(=O)O)NC(=O)[C@H](CCCCN)NC(=O)[C@H](CC(=O)O)NC(=O)[C@H](CCSC)NC(=O)[C@H](CC(C)C)NC(=O)[C@H](CO)NC(=O)[C@H](CO)NC2=O)C(=O)N[C@@H](C(C)C)C(=O)N[C@@H](Cc2ccc(O)cc2)C(=O)N[C@@H](Cc2ccccc2)C(=O)N1)C(=O)N[C@H](C(=O)N[C@@H](Cc1c[nH]c2ccccc12)C(=O)O)[C@@H](C)CC [endothelin]
Inhibition of uptake of losartan in rat hepatocytes [4]: 22%

CCCCc1ncc(/C=C(\Cc2cccs2)C(=O)O)n1Cc1ccc(C(=O)O)cc1 [eprosartan]
BDDCS class [5]: Class 4

CCCCc1nc(Cl)c(CO)n1Cc1ccc(-c2ccccc2-c2nn[nH]n2)cc1 [losartan]
BDDCS class [5]: Class 2 | Change in AUC of the cumulative metabolite [6]: no change in metabolite formation

CC(C)NCC(O)COc1cccc2ccccc12 (stereo not shown) [propranolol]
BDDCS class [5]: Class 1

C=C[C@H]1C[N@@]2CC[C@H]1C[C@@H]2[C@@H](O)c1ccnc2ccc(OC)cc12 [quinidine]
Effect on metabolism of propranolol in rat microsomes [7]: inhibit metabolism | Effect on metabolism of propranolol in human microsomes [8]: inhibited propranolol metabolism

CO[C@H]1/C=C/O[C@@]2(C)Oc3c(C)c(O)c4c(O)c(c(/C=N/N5CCN(C)CC5)c(O)c4c3C2=O)NC(=O)/C(C)=C\C=C\[C@H](C)[C@H](O)[C@@H](C)[C@@H](O)[C@@H](C)[C@H](OC(C)=O)[C@@H]1C [rifampin]
Effect on metabolism of losartan in rat microsomes [9]: no change in metabolism | Change of uptake of eprosartan in rat hepatocytes compared to normal serum [10]: no significant differences | Decrease of uptake of losartan in human hepatocytes compared to normal serum [11]: 55%

Nc1ccc(S(=O)(=O)Nc2ccnn2-c2ccccc2)cc1 [sulfaphenazole]
Effect on metabolism of losartan in rat microsomes [9]: decrease in metabolism | Effect on metabolism of losartan in human microsomes [12]: no inhibition of metabolism

IL-6: interleukin-6, tested as uremic toxin
Inhibition of uptake of losartan in rat hepatocytes ([1]; losartan 10 μM, p<0.05, n=4): 28%
